Data as given in patent publication US10940188B2, “Compounds and methods for treatment and prevention of Flavivirus infection” (priority 2016, dated 2021).

Legend:
[1] = tested on: forebrain-specific brain organoids; experiment: hNPC proliferation in forebrain organoids (phospho-Histone 3), compound alone; type: cell-based, human; conditions: 3 days
Description: (§1) FIGS. 17A-17C. Analysis of potential toxicity of CDKis on human astrocyte viability and hNPC proliferation. Human iPSC-derived astrocytes (BJ line) were treated with each indicated compound (cpd) for 25 hours prior to cell viability analysis as measured in relative luciferase units for ATP production. Values represent mean+s.d. (n=3 cultures; ***P<0.001; **P<0.01; One-way ANOVA for comparison with the DMSO treatment). RLU: relative luminescence units. hNPCs were treated with saline, PHA-690509 (PHA, 1 μM) or Seliciclib (5 μM), 1 hour prior to ZIKV PRVABC59 infection (MOI=0.08). At 72 hours post infection, EdU (10 μM) was added to hNPCs and cells were cultured for additional 4 hours prior to fixation and staining for EdU and DAPI. Values represent mean+s.e.m. (n=3 cultures; ***P<0.001; One-way ANOVA for comparison with the mock treatment). Day 20 forebrain-specific brain organoids were treated with PHA-690509 (1 μM) or Seliciclib (5 μM) for 3 days and hNPC proliferation was evaluated by phospho-Histone 3 (PH3) expression within the ventricular zone. Values represent mean+s.e.m. (n=8 organoids; P>0.05; One-way ANOVA for comparison with the mock treatment).

[2] = tested on: hNPCs infected with ZIKV PRVABC59; experiment: hNPC proliferation after ZIKV infection (EdU); type: cell-based, human; conditions: PHA-690509 1 μM, Seliciclib 5 μM
Description: as §1

[3] = tested on: activated caspases; conditions: in vitro; cited from earlier work
[4] = tested on: ZIKV MR766 NS1; experiment: microbe, parasite or virus in culture; type: cell-based, Zika virus; conditions: Zika virus, HEK293, 48 h, read-out: NS1-IC50
Description: A one-step NS1 TR-FRET (Time-resolved fluorescence resonance energy transfer) assay for a screen of anti-ZIKV compounds was carried out. Human embryonic kidney cell line HEK293 cells were seeded into 384-well plates and infected with ZIKV MR766 at a MOI of 0.5 for 2 days. The FRET assay was performed with two clones of anti-NS1 antibody (ab) differentially labelled with donor and acceptor fluorophores.

CC(=O)Nc1ccc([C@H](C)C(=O)Nc2ncc(C(C)C)s2)cc1 [PHA-690509]
effect of the treatment itself on hNPC proliferation [1]: minimal effect on hNPC proliferation in brain organoids
rescue of ZIKV-induced reduction of hNPC proliferation [2]: partially rescued ZIKV-induced reduction of hNPC proliferation

C[C@H](NC(=O)C(=O)Nc1ccccc1C(C)(C)C)C(=O)N[C@@H](CC(=O)O)C(=O)COc1c(F)c(F)cc(F)c1F [Emricasan]
activity against activated caspases [3]: sub- to nano-molar activity

CC[C@H]1CN2CCc3cc(OC)c(OC)cc3[C@@H]2C[C@@H]1C[C@H]1NCCc2cc(OC)c(OC)cc21 [Emetine]
IC50 [4]: 114 nM
